Source: patent US20250230193A1, “CYCLIC COMPOUND HAVING SELECTIVE KRAS INHIBITORY EFFECT ON HRAS AND NRAS” (CHUGAI SEIYAKU KABUSHIKI KAISHA, priority 2022, published 2025)
*1 amine or outer side, *2 acyl side, *3 side chain or, on linkers, in order; H or OH if unused. Where a SMILES comes first, the peptide text is derived from it. Bridges are numbered along the chain shown (N, C = ends). [ ]: non-standard residue; d: D form. The star is where a group is joined. hPhe(3-Cl-4-CF3) = N[C@@H](CCc1ccc(C(F)(F)F)c(Cl)c1)C(=O)O; NPrPhe(4-CF3) = CCCN[C@@H](Cc1ccc(C(F)(F)F)cc1)C(=O)O; X20 = CCCN([C@@H](CC1CCC(F)(F)CC1)C(=O)[*:2])[*:1]; NMeGly(cPent) = CN[C@H](C(=O)O)C1CCCC1; NMeD = CN[C@@H](CC(=O)O)C(=O)O; NMeL = CN[C@@H](CC(C)C)C(=O)O; NMeNva = CCC[C@H](NC)C(=O)O; Morpholide = C1CN(*)CCO1; NMeA = CN[C@@H](C)C(=O)O; Ac5c = NC1(C(=O)O)CCCC1; Aze = O=C(O)[C@@H]1CCN1; Ac4c = NC1(C(=O)O)CCC1; NPrGly = CCCNCC(=O)O; Sar = CNCC(=O)O

How the values were obtained:
[1] = biological target: GDP-bound NRAS wild-type protein (Homo sapiens, UniProt P01111); test: Binding to NRAS by surface plasmon resonance (SPR), Single Cycle Kinetics
Chain of GDP-bound NRAS wild-type protein (P01111 whole entry): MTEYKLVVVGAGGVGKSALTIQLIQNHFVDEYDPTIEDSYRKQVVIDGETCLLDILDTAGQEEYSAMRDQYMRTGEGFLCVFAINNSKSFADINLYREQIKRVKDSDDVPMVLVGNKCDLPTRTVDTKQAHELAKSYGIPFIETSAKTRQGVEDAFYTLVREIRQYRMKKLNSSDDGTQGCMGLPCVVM

[2] = biological target: GDP-bound HRAS wild-type protein (Homo sapiens, UniProt P01112); test: Binding to HRAS by surface plasmon resonance (SPR), Single Cycle Kinetics
Chain of GDP-bound HRAS wild-type protein (P01112 whole entry): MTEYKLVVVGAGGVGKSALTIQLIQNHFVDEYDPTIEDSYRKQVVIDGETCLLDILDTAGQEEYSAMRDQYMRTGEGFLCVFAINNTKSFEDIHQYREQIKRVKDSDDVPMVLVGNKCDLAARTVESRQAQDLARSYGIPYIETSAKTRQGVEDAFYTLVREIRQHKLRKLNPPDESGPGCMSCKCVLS

SMILES | NRAS/KRAS (ratio of KD value with respect to GDP-bound NRAS wild-type protein to KD value with respect to KRAS) ([1]; class symbols) | HRAS/KRAS (ratio of KD value with respect to GDP-bound HRAS wild-type protein to KD value with respect to KRAS) ([2]; class symbols) | NRAS/KRAS (ratio of KD value with respect to GDP-bound NRAS wild-type protein to KD value with respect to KRAS) ([1]; SPR) | HRAS/KRAS (ratio of KD value with respect to GDP-bound HRAS wild-type protein to KD value with respect to KRAS) ([2]; SPR) | also measured
CCC[C@H]1C(=O)N[C@@H]([C@@H](C)CC)C(=O)N(C2CC2)CC(=O)N(C)[C@H]2C/C=C\CCN(C2=O)[C@@H](Cc2ccc(C(F)F)cc2)C(=O)N(C)CC(=O)N[C@@H](CCc2cc(F)c(C(F)(F)F)c(F)c2)C(=O)N2C[C@H](OCC)C[C@H]2C(=O)NC2(CC(C)(C)C2)C(=O)N(C)[C@@H](C(CC)CC)C(=O)N(C)[C@H](C(=O)N(C)C)CC(=O)N1C [PP2527] | AA (a compound having 20 or more is denoted as AA) | A (a compound having 10 or more and less than 20 is denoted as A) |  |  | 
CCC[C@H]1C(=O)N[C@@H]([C@@H](C)CC)C(=O)N(C)CC(=O)N(C)[C@H]2C/C=C\CCN(C2=O)[C@@H](Cc2ccc(C(F)(F)F)cc2)C(=O)N(C)CC(=O)N[C@@H](CCc2ccc3ccn(C)c3c2)C(=O)N2C[C@H](OCC)C[C@H]2C(=O)NC2(CC(C)(C)C2)C(=O)N(C)[C@@H](C2CCCC2)C(=O)N(C)[C@H](C(=O)N(C)C)CC(=O)N1C [PP2901] | A (a compound having 10 or more and less than 20 is denoted as A) | A (a compound having 10 or more and less than 20 is denoted as A) |  |  | 
CC[C@H](C)[C@@H]1NC(=O)[C@H](CC(C)C)N(C)C(=O)C[C@@H](C(=O)N(C)C)N(C)C(=O)[C@H](C2CCCC2)N(C)C(=O)C2(CCCC2)NC(=O)[C@@H]2CCCN2C(=O)[C@H](CCc2cc(F)c(C(F)(F)F)c(F)c2)NC(=O)CN(C)C(=O)[C@H](Cc2ccc(C(F)(F)F)cc2)N2CCCCC[C@@H](C2=O)N(C)C(=O)CN(C)C1=O [PP0507] |  |  | B (a compound having 3 or more and less than 10 is denoted as B) | B (a compound having 3 or more and less than 10 is denoted as B) | 
CCC[C@H]1C(=O)N[C@@H]([C@@H](C)CC)C(=O)N(C)CC(=O)N(C)[C@H]2C/C=C\CCN(C2=O)[C@@H](Cc2ccc(C(F)(F)F)cc2)C(=O)N(C)CC(=O)N[C@@H](CCc2ccc(C(F)(F)F)c(OC)c2)C(=O)N2CCCC[C@H]2C(=O)NC2(CC(C)(C)C2)C(=O)N(C)[C@@H](C(CC)CC)C(=O)N(C)[C@H](C(=O)N(C)C)CC(=O)N1C [PP2934] | AA (a compound having 20 or more is denoted as AA) | A (a compound having 10 or more and less than 20 is denoted as A) |  |  | 
CCCN1C(=O)[C@@H]2CCN2C(=O)[C@H](C)N(C)C(=O)[C@H]([C@@H](C)CC)NC(=O)[C@H](CC(C)C)N(C)C(=O)C[C@@H](C(=O)N2CCOCC2)N(C)C(=O)[C@H](C2CCCC2)N(C)C(=O)C2(CCCC2)NC(=O)[C@@H]2CCCN2C(=O)[C@H](CCc2ccc(C(F)(F)F)c(Cl)c2)NC(=O)CN(C)C(=O)[C@@H]1CC1CCC(F)(F)CC1 [PP0527] ([NMeL]I[NMeA][Aze][X20][Sar][hPhe(3-Cl-4-CF3)]P[Ac5c][NMeGly(cPent)][NMeD]-Morpholide; lactam N-11) |  |  | C (A compound having a KD ratio of 0.1 or more and less than 3 is denoted as C) | C (A compound having a KD ratio of 0.1 or more and less than 3 is denoted as C) | 
CC[C@H](C)[C@@H]1NC(=O)[C@H](CC)N(C)C(=O)C[C@@H](C(=O)N(C)C)N(CC)C(=O)[C@H](C2CCCC2)N(C)C(=O)C2(CCC2)NC(=O)[C@@H]2C[C@@H](N3CCC(F)(F)CC3)CN2C(=O)[C@H](CCc2cc(F)c(C(F)(F)F)c(F)c2)NC(=O)CN(C)C(=O)[C@H](Cc2ccc(C(F)(F)F)cc2)N2CCCC[C@@H](C2=O)N(C)C(=O)CN(C)C1=O [PP0733] |  |  | B (a compound having 3 or more and less than 10 is denoted as B) | B (a compound having 3 or more and less than 10 is denoted as B) | 
CCC[C@H]1C(=O)N[C@@H]([C@@H](C)CC)C(=O)N(C)CC(=O)N(CCC)CC(=O)N(CCC)[C@@H](Cc2ccc(C(F)(F)F)cc2)C(=O)N(C)CC(=O)N[C@@H](CCc2ccc(C(F)(F)F)c(Cl)c2)C(=O)N2CCC[C@H]2C(=O)NC2(CCC2)C(=O)N(C)[C@@H](C2CCCC2)C(=O)N(C)[C@H](C(=O)N2CCOCC2)CC(=O)N1C [PP1949] ([NMeNva]I[Sar][NPrGly][NPrPhe(4-CF3)][Sar][hPhe(3-Cl-4-CF3)]P[Ac4c][NMeGly(cPent)][NMeD]-Morpholide; lactam N-11) |  |  |  |  | NRAS/KRAS (ratio of KD value for NRAS to KD value for KRAS) ([1]; KD ratio, GDP-bound NRAS wild-type vs GDP-bound KRAS wild-type, SPR): C (A compound having a KD ratio of 0.1 or more and less than 3 is denoted as C); HRAS/KRAS (ratio of KD value for HRAS to KD value for KRAS) ([2]; KD ratio, GDP-bound HRAS wild-type vs GDP-bound KRAS wild-type, SPR): C (A compound having a KD ratio of 0.1 or more and less than 3 is denoted as C)
